Results as given in patent US20210127673A1, “HERBICIDES” (SYNGENTA PARTICIPATIONS AG, priority 2016, published 2021).

How the values were obtained:
Assay type in all cases: in vivo
Lolium perenne (LOLPE) [1] = test: Pre-emergence herbicidal activity, Lolium perenne; parameters: key: 5=total damage to plant; 0=no damage to plant; conditions: 1000 g/ha, evaluated after 13 days, Test 1b
Summary of the method: (§1)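 Damage is rated on a 0–5 scale (0 = no damage, 5 = total damage) 13 days after treatment. Pots of sown seed are sprayed one day after sowing with an aqueous solution from acetone/water (50:50) with 0.5% Tween 20, then kept under controlled glasshouse conditions.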

Zea Mays (ZEAMX) [2] = test: Post-emergence herbicidal activity, Zea Mays; parameters: key: 5=total damage to plant; 0=no damage to plant; conditions: 1000 g/ha, evaluated after 13 days, Test 2b
Procedure: (§2) Seeds of a variety of test species were sown in standard soil in pots: Triticum aestivium (TRZAW), Avena fatua (AVEFA), Alopecurus myosuroides (ALOMY), Echinochloa crus-galli (ECHCG), Lolium perenne (LOLPE), Zea Mays (ZEAMX), Abutilon theophrasti (ABUTH), Amaranthus retroflexus (AMARE) and Setaria faberi (SETFA). After 8 days cultivation (post-emergence) under controlled conditions in a glasshouse (at 24/16° C., day/night; 14 hours light; 65% humidity), the plants were sprayed with an aqueous spray solution derived from the formulation of the technical active ingredient in acetone/water (50:50) solution containing 0.5% Tween 20 (polyoxyethelyene sorbitan monolaurate, CAS RN 9005-64-5). The test plants were then grown in a glasshouse under controlled conditions (at 24/16° C., day/night; 14 hours light; 65% humidity) and watered twice daily. After 13 days, the test was evaluated (5=total damage to plant; 0=no damage to plant).

[3] = tested on: Amaranthus retroflexus (AMARE); test: Post-emergence herbicidal activity, Amaranthus retroflexus; parameters: key: 5=total damage to plant; 0=no damage to plant; conditions: 1000 g/ha, evaluated after 13 days, Test 2b
Procedure: as §2

Lolium perenne (LOLPE) [4] = test: Post-emergence herbicidal activity, Lolium perenne; conditions: 1000 g/ha, evaluated after 13 days, Test 2b
Summary of the method: (§3)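 Each value is a visual damage score from 0 (no effect) to 5 (plant killed), assessed 13 days after a foliar spray applied to 8-day-old plants. The compound was applied in acetone/water 50:50 with 0.5% Tween 20 under controlled glasshouse conditions.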

[5] = tested on: Echinochloa crus-galli (ECHCG); test: Post-emergence herbicidal activity, Echinochloa crus-galli; conditions: 1000 g/ha, evaluated after 13 days, Test 2b
Summary of the method: as §3

Setaria faberi (SETFA) [6] = test: Pre-emergence herbicidal activity, Setaria faberi; parameters: key: 5=total damage to plant; 0=no damage to plant; conditions: 1000 g/ha, evaluated after 13 days, Test 1b
Summary of the method: as §1

Setaria faberi (SETFA) [7] = test: Post-emergence herbicidal activity, Setaria faberi; parameters: key: 5=total damage to plant; 0=no damage to plant; conditions: 1000 g/ha, evaluated after 13 days, Test 2b
Summary of the method: as §3

Zea Mays (ZEAMX) [8] = test: Pre-emergence herbicidal activity, Zea Mays; parameters: key: 5=total damage to plant; 0=no damage to plant; conditions: 1000 g/ha, evaluated after 13 days, Test 1b
Procedure: (§4) Seeds of a variety of test species were sown in standard soil in pots: Triticum aestivium (TRZAW), Avena fatua (AVEFA), Alopecurus myosuroides (ALOMY), Echinochloa crus-galli (ECHCG), Lolium perenne (LOLPE), Zea Mays (ZEAMX), Abutilon theophrasti (ABUTH), Amaranthus retroflexus (AMARE) and Setaria faberi (SETFA). After cultivation for one day (pre-emergence) under controlled conditions in a glasshouse (at 24/16° C., day/night; 14 hours light; 65% humidity), the plants were sprayed with an aqueous spray solution derived from the formulation of the technical active ingredient in acetone/water (50:50) solution containing 0.5% Tween 20 (polyoxyethelyene sorbitan monolaurate, CAS RN 9005-64-5). The test plants were then grown in a glasshouse under controlled conditions (at 24/16°, day/night; 14 hours light; 65% humidity) and watered twice daily. After 13 days, the test was evaluated (5=total damage to plant; 0=no damage to plant).

[9] = tested on: Abutilon theophrasti (ABUTH); test: Pre-emergence herbicidal activity, Abutilon theophrasti; parameters: key: 5=total damage to plant; 0=no damage to plant; conditions: 1000 g/ha, evaluated after 13 days, Test 1b
Procedure: as §4

[10] = tested on: Echinochloa crus-galli (ECHCG); test: Pre-emergence herbicidal activity, Echinochloa crus-galli; parameters: key: 5=total damage to plant; 0=no damage to plant; conditions: 1000 g/ha, evaluated after 13 days, Test 1b
Summary of the method: as §1

[11] = tested on: Amaranthus retroflexus (AMARE); test: Pre-emergence herbicidal activity, Amaranthus retroflexus; parameters: key: 5=total damage to plant; 0=no damage to plant; conditions: 1000 g/ha, evaluated after 13 days, Test 1b
Procedure: as §4

[12] = tested on: Abutilon theophrasti (ABUTH); test: Post-emergence herbicidal activity, Abutilon theophrasti; parameters: key: 5=total damage to plant; 0=no damage to plant; conditions: 1000 g/ha, evaluated after 13 days, Test 2b
Procedure: as §2

SMILES	LOLPE damage score (0-5) (Lolium perenne (LOLPE) [1])	ZEAMX damage score (0-5) (Zea Mays (ZEAMX) [2])	AMARE damage score (0-5) [3]	LOLPE damage score (0-5) (Lolium perenne (LOLPE) [4])	ECHCG damage score (0-5) [5]	SETFA damage score (0-5) (Setaria faberi (SETFA) [6])	SETFA damage score (0-5) (Setaria faberi (SETFA) [7])	ZEAMX damage score (0-5) (Zea Mays (ZEAMX) [8])	ABUTH damage score (0-5) [9]	ECHCG damage score (0-5) [10]	AMARE damage score (0-5) [11]	ABUTH damage score (0-5) [12]
CCN(C(=O)OC(C)(C)C)c1ccc(-c2cncc(F)c2)nc1C(F)(F)F [Compound B14]	0	4	0	1	2	0	4	0	4	0	0	0
Cc1nc(-c2cccnc2)ccc1NC(=O)OC(C)(C)C [Compound B25]	2	4	2	4	3	5	5	3	1	2	1	2
Cc1nc(-c2cncc(C#N)c2)ccc1NC(=O)OC(C)(C)C [Compound B20]	1	4	1	3	4	4	5	5	0	5	1	0
CC(C)(C)OC(=O)Nc1ccc(-c2cncnc2)nc1C(F)(F)F [Compound B32, tert-butyl N-[6-pyrimidin-5-yl-2-(trifluoromethyl)-3-pyridyl]carbamate]	1	5	0	2	4	5	5	5	0	3	0	0
Cc1nc(-c2cncc(OC(F)F)c2)ccc1NC(=O)OC(C)(C)C [Compound B13]	1	5	1	2	3	3	5	2	0	2	0	0
COc1cncc(-c2ccc(N(C)C(=O)OC(C)(C)C)c(C(F)(F)F)n2)c1 [Compound B21]	0	2	0	1	2	1	3	0	1	0	1	0
